Data reported in patent US20160235727A1, “NOVEL PYRROLIDINE DERIVED BETA 3 ADRENERGIC RECEPTOR AGONISTS” (Merck Sharp & Dohme Corp., priority 2013, published 2016).

Target: T1, human β3-AR (Homo sapiens, UniProt P13945)
T1 construct: expressed in transfected cells; host or cells: CHO (Chinese hamster ovary) cells, stably transfected
Assay: cAMP functional agonist assay (LANCE TR-FRET) in CHO cells expressing cloned human β3-AR
Assay type: cell-based
Conditions: for EC50: CHO cells stably expressing cloned human β3-adrenoceptor, cAMP release, read-out: Human β3-AR Agonism EC50; for Fold drop in potency vs. 2-chloropyridine analog: EC50 of comparative example divided by EC50 of corresponding 2-chloropyridine compound; for Human β3-AR Agonist Activity (%): percent maximum activation relative to isoproterenol
Procedure: The ability of compounds to activate the human β3-AR receptor was measured using a CHO cell line stably expressing the cloned human β1-, β2-, and β3-adrenoceptors (β-AR). […] To quantify the amount of cAMP released following β-AR activation, the LANCE cAMP kit (Perking Elmer), a time-resolved fluorescence resonance energy transfer immunoassay, was used. Compounds were serially diluted in DMSO and an aliquot added to either 384-well or 96-well micro titer plates in assay buffer (5 mM HEPES, 0.1% BSA in Hank's Balanced Salt Solution). […] Following 30 min incubation at room temperature, the cells were lysed by the addition of LANCE detection buffer which contained a europium-labeled cAMP tracer. Fluorescence was measured following one hour incubation at room temperature using a Perking Elmer Envision plate reader, exciting at 340 nm and measuring emission at 615 nm and 665 nm. For each assay, a cAMP standard curve was included and used to convert fluorescence readings directly to cAMP amounts. The values were then normalized to isoproterenol, a known full agonist of β-AR, which was titrated in every assay and the EC50 determined using a custom in-house data analysis package. Along with EC50, the percent maximum activation relative to isoproterenol is reported.
The cAMP production is measured using a homogenous time-resolved fluorescence resonance energy transfer immunoassay (LANCE™, Perkin Elmer) according to the manufacture's instructions. Chinese hamster ovary (CHO) cells, stably transfected with the cloned β-adrenergic receptor (β1, β2 or β3) are harvested after 3 days of subculturing. Harvesting of cells is done with Enzyme-free Dissociation Media (Specialty Media). Cells are then counted and resuspended in assay buffer (Hank's Balanced salt solution supplemented with 5 mM HEPES, […]) containing a phosphodiesterase inhibitor (IBMX, 0.6 mM). The reaction is initiated by mixing 6,000 cells in 6 μL with 6 μL Alexa Fluor labeled cAMP antibody (LANCE™ kit) which is then added to an assay well containing 12 μL of compound (diluted in assay buffer to 2× final concentration). The reaction proceeds for 30 minutes at RT and is terminated by the addition of 24 ul detection buffer (LANCE™ kit). The assay plate is then incubated for 1 h at RT and time-resolved fluorescence measured on a Perkin Elmer Envision reader or equivalent. The unknown cAMP level is determined by comparing fluorescence levels to a cAMP standard curve.
The non-selective, full agonist β-adrenergic ligand isoproterenol is used at all three receptors to determine maximal stimulation. […] Data are analyzed using Microsoft Excel and Graphpad Prism or an internally developed data analysis software package. […]

T1 sequence (P13945 whole entry): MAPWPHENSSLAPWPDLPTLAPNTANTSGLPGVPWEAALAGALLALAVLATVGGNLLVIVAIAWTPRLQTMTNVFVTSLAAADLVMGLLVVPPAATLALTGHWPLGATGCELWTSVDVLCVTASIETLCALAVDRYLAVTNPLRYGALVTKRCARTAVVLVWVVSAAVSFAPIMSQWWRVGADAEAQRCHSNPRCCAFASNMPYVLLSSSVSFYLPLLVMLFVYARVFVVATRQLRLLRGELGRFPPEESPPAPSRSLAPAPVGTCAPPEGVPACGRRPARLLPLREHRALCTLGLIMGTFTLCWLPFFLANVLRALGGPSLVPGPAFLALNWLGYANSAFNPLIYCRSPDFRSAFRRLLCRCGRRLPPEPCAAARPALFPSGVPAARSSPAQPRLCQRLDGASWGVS

| Compound | EC50 [nM] | Fold drop in potency vs. 2-chloropyridine analog [fold] | Human β3-AR Agonist Activity (%) |
| --- | --- | --- | --- |
| COCc1cc(CN(C)C(=O)c2ccc(C[C@@H]3CC[C@H]([C@H](O)c4cccnc4)N3)cc2)n[nH]1 [Example 9-H, 4-(((2S,5R)-5-((R)-hydroxy(pyridin-3-yl)methyl)pyrrolidin-2-yl)methyl)-N-((5-(methoxymethyl)-1H-pyrazol-3-yl)methyl)-N-methylbenzamide] | 104 | 38.1 | 101 |
| COC(=O)c1cncc(CN(C)C(=O)c2ccc(C[C@@H]3CC[C@H]([C@H](O)c4ccc(Cl)cc4)N3)cc2)c1 [Example 34-G, Methyl 5-((4-(((2S,5R)-5-((R)-(4-chlorophenyl)(hydroxy)methyl)pyrrolidin-2-yl)methyl)-N-methylbenzamido)methyl)nicotinate] | 18 | 2.9 | 90 |
| COCCN(C)C(=O)c1ccc(C[C@@H]2CC[C@H]([C@H](O)c3ccc(Cl)nc3)N2)cc1 [Example 1-A] | 96 |  | 100 |
| CC(c1cccnc1)N(C)C(=O)c1ccc(C[C@@H]2CC[C@H]([C@H](O)c3ccccc3)N2)cc1 (stereo partly drawn) [Example 23-B, 4-(((2S,5R)-5-((R)-hydroxy(phenyl)methyl)pyrrolidin-2-yl)methyl)-N-methyl-N-(1-(pyridin-3-yl)ethyl)benzamide] | 3 | 1.5 | 93 |
| Cc1cc([C@@H](O)[C@H]2CC[C@@H](Cc3ccc(C(=O)N(C)Cc4cccnc4)cc3)N2)cnc1Cl [Example 21-S, 4-(((2S,5R)-5-((R)-(6-chloro-5-methylpyridin-3-yl)(hydroxy)methyl)pyrrolidin-2yl)methyl)-N-methyl-N-(pyridin-3-ylmethyl)benzamide] | 307 | 72.1 | 84 |
| CN(Cc1cc(C2CC2)[nH]n1)C(=O)c1ccc(C[C@@H]2CC[C@H]([C@H](O)c3ccccc3)N2)cc1 [Example 8-B, N-((5-cyclopropyl-1H-pyrazol-3-yl)methyl)-4-(((2S,5R)-5-((R)-hydroxy(phenyl)methyl)pyrrolidin-2-yl)methyl)-N-methylbenzamide] | 39 | 2.0 | 103 |
| CN(Cc1cccnc1)C(=O)c1ccc(C[C@@H]2CC[C@H]([C@H](O)c3ccc(C4CC4)nc3)N2)cc1 [Example 21-I, 4-(((2S,5R)-5-((R)-(6-cyclopropylpyridin-3-yl)(hydroxy)methyl)pyrrolidin-2-yl)methyl)-N-methyl-N-(pyridin-3-ylmethyl)benzamide] | 19 | 4.4 | 71 |
| O=C(c1ccc(C[C@@H]2CC[C@H]([C@H](O)c3ccc(Cl)nc3)N2)cc1)N(CCO)Cc1cccnc1F [Example 27-A, 4-(((2S,5R)-5-((R)-(6-chloropyridin-3-yl)(hydroxy)methyl)pyrrolidin-2-yl)methyl)-N-((2-fluoropyridin-3-yl)methyl)-N-(2-hydroxyethyl)benzamide] | 5 |  | 57 |
| Cc1cc(CN(C)C(=O)c2ccc(C[C@@H]3CC[C@H]([C@H](O)c4ccccc4)N3)cc2)cnc1F [Example 39-B] | 2 | 3.8 | 104 |
| CN(Cc1cccnc1F)C(=O)c1ccc(C[C@@H]2CC[C@H]([C@H](O)c3ccc(Cl)nc3)N2)cc1 [Example 26-A, 4-(((2S,5R)-5-((R)-(6-chloropyridin-3-yl)(hydroxy)methyl)pyrrolidin-2-yl)methyl)-N-((2-fluoropyridin-3-yl)methyl)-N-methylbenzamide] | 35 |  | 97 |
| CN(Cc1cccnc1F)C(=O)c1ccc(C[C@@H]2CC[C@H]([C@H](O)c3cccc(F)c3)N2)cc1 [Example 26-C, 4-(((2S,5R)-5-((R)-(3-fluorophenyl)(hydroxy)methyl)pyrrolidin-2-yl)methyl)-N-((2-fluoropyridin-3-yl)methyl)-N-methylbenzamide] | 143 | 4.1 | 98 |
| COc1ccc(CN(C)C(=O)c2ccc(C[C@@H]3CC[C@H]([C@H](O)c4ccccc4)N3)cc2)cn1 [Example 29-B, 4-(((2S,5R)-5-((R)-hydroxy(phenyl)methyl)pyrrolidin-2-yl)methyl)-N-((6-methoxypyridin-3-yl)methyl)-N-methylbenzamide] | 86 | 5.1 | 99 |
| COc1ccc([C@@H](O)[C@H]2CC[C@@H](Cc3ccc(C(=O)N(C)Cc4cccnc4)cc3)N2)cn1 [Example 21-P, 4-(((2S,5R)-5-((R)-hydroxy(6-methoxypyridin-3-yl)methyl)pyrrolidin-2-yl)methyl)-N-methyl-N-(pyridin-3-ylmethyl)benzamide] | 24 | 5.7 | 93 |
| CN(Cc1ccc(Cl)nc1)C(=O)c1ccc(C[C@@H]2CC[C@H]([C@H](O)c3ccc(Cl)nc3)N2)cc1 [Example 30-A, 4-(((2S,5R)-5-((R)-(6-chloropyridin-3-yl)(hydroxy)methyl)pyrrolidin-2-yl)methyl)-N-((6-chloropyridin-3-yl)methyl)-N-methylbenzamide] | 3 |  | 99 |
| CN(Cc1cccnc1)C(=O)c1ccc(C[C@@H]2CC[C@H]([C@H](O)c3ccc(C(N)=O)nc3)N2)cc1 [Example 21-K, 5-((R)-hydroxy((2R,5S)-5-(4-(methyl(pyridin-3-ylmethyl)carbamoyl)benzyl)pyrrolidin-2-yl)methyl)picolinamide] | 112 | 26.3 | 87 |
| COCc1cc(CN(C)C(=O)c2ccc(C[C@@H]3CC[C@H]([C@H](O)c4ccc(Cl)cc4)N3)cc2)n[nH]1 [Example 9-G, 4-(((2S,5R)-5-((R)-(4-chlorophenyl)(hydroxy)methyl)pyrrolidin-2-yl)methyl)-N-((5-(methoxymethyl)-1H-pyrazol-3-yl)methyl)-N-methylbenzamide] | 4 | 1.6 | 97 |
| CN(Cc1n[nH]c2c1CCC2)C(=O)c1ccc(C[C@@H]2CC[C@H]([C@H](O)c3ccccc3)N2)cc1 [Example 13-B, 4-(((2S,5R)-5-((R)-hydroxy(phenyl)methyl)pyrrolidin-2-yl)methyl)-N-methyl-N-((1,4,5,6-tetrahydrocyclopenta[c]pyrazol-3-yl)methyl)benzamide] | 3 | 1.5 | 113 |
| CN(Cc1nc2ccccc2c(=O)n1C)C(=O)c1ccc(C[C@@H]2CC[C@H]([C@H](O)c3ccc(Cl)nc3)N2)cc1 [Example 45-A, 4-(((2S,5R)-5-((R)-(6-chloropyridin-3-yl)(hydroxy)methyl)pyrrolidin-2-yl)methyl)-N-methyl-N-((3-methyl-4-oxo-3,4-dihydroquinazolin-2-yl)methyl)benzamide] | 25 |  | 90 |
| CN(Cc1cc(C(F)(F)F)[nH]n1)C(=O)c1ccc(C[C@@H]2CC[C@H]([C@H](O)c3ccccc3)N2)cc1 [Example 10-B, 4-(((2S,5R)-5-((R)-hydroxy(phenyl)methyl)pyrrolidin-2-yl)methyl)-N-methyl-N-((5-(trifluoromethyl)-1H-pyrazol-3-yl)methyl)benzamide] | 5 | 3.2 | 110 |
| CN(Cc1ccc(=O)[nH]c1)C(=O)c1ccc(C[C@@H]2CC[C@H]([C@H](O)c3ccc(F)cc3)N2)cc1 [Example 28-F, 4-(((2S,5R)-5-((R)-(4-fluorophenyl)(hydroxy)methyl)pyrrolidin-2-yl)methyl)-N-methyl-N-((6-oxo-1,6-dihydropyridin-3-yl)methyl)benzamide] | 732 | 4.2 | 88 |
